In US4420643A, “Extraction of phenols from aqueous solutions” (priority 1982, dated 1983):

Columns and labels:
[1] = Concentration of TOPO obtainable in the extraction solution; type: physicochemical
From the text: It is advantageous in solvent extraction to maximize the loading of the extracted compound in the organic phase. This also permits a higher ratio of aqueous phase to organic phase (A/O) in the extraction process, that is, a greater volume of aqueous solution treated per volume of organic extractant. It is therefore desirable to maximize the concentration of phosphine oxide in the extraction solution. With TOPO, solutions containing in excess of 30% by weight are readily obtained.

[2] = Extraction of phenol from 1% aqueous solution with high boiling solvents alone and with TOPO (Example 3, Table III); type: physicochemical; conditions: 24° C., 10 minutes
Description: A number of high boiling solvents, which would allow recovery of the extracted phenol without the necessity of distilling the solvent, were evaluted and the distribution coefficient calculated for the solvent alone and containing 133 g/l of TOPO. The aqueous solution extracted contained 1% phenol, which was contacted with the solvent or solvent plus TOPO for 10 minutes at 24° C.

[3] = Water solubility of the solvents
[4] = solvent + TOPO 133 g/l (head: TOPA), A/O = 0.5
[5] = solvent + TOPO 133 g/l, A/O = 1

Compound	TOPO concentration of solutions readily obtained [1] [% by weight]	C aq. Final (phenol) [2, 4] [ppm]	C aq. Final (phenol) [2, 5] [ppm]	C aq. Final (phenol) ([2]; solvent alone, A/O = 1) [ppm]	water solubility [3]
CCCCCCCCP(=O)(CCCCCCCC)CCCCCCCC [TOPO, tri-n-octylphosphine oxide]	> 30				
Isopropyl naphthalene		18	45	4690	negligible water solubility
c1ccc(Cc2ccccc2)cc1 [Diphenyl methane]		21	59		
CC(C)CC(=O)CC(C)C [DIBK, diisobutylketone, reference compound]		26	60	285	
CC(C)OC(C)C [Diisopropyl ether, diisopropyl ether, reference compound]				419	
c1ccc(Oc2ccccc2)cc1 [Diphenyl ether]		23	55	3075	
CCCCCCCCCCCCCO [Tridecanol]		128	515	531	
O=C(c1ccccc1)c1ccccc1 [Benzophenone]		37	85		
Diisopropyl naphthalene		18	46	5590	negligible water solubility
CC(=O)CC(C)C [Methyl isobutyl ketone, reference compound]		24	43	130	
